For the experiment, the system named is HCT 116 cells. Kind of experiment: Viability assay in HCT 116 cells (CellTiter-Glo Luminescent Cell Viability Assay). It is filed as cell-based. The note with it: HCT 116 human colon carcinoma cells, 5 days (120 h) incubation, ATP luminescence. As to the method:
Viability Assay in HCT 116 Cells
A viability assay was performed using the CellTiter-Glo® Luminescent Cell Viability Assay (see Promega Corporation's Technical Bulletin No. 288, pp. 1-11 [revised February 2004] which is hereby incorporated by reference in its entirety). This assay is a homogeneous method of determining the number of viable cells in culture based on quantitation of the ATP present, an indicator of metabolically active cells. The assay is designed for use with multiwell formats, making it ideal for automated high-throughput screening (HTS), cell proliferation and cytotoxicity assays. The homogenous assay procedure involves adding a single reagent (containing luciferase, luciferan substrate, and buffer) directly to cells cultured in serum-supplemented medium. Cell washing, removal of medium and multiple pipetting steps are not required. The system detects as few as 15 cells/well in a 384-well format in 10 minutes after adding reagent and mixing.
The homogeneous “add-mix-measure” format results in cell lysis and generation of a luminescent signal proportional to the amount of ATP present. The amount of ATP is directly proportional to the number of cells present in culture. The above-referenced assay generates a “glow-type” luminescent signal, produced by the luciferase reaction, which has a half-life generally greater than five hours, depending on cell type and medium used. The extended half-life eliminates the need to use reagent injectors and provides flexibility for continuous or batch mode processing of multiple plates. The unique homogeneous format avoids errors that may be introduced by other ATP measurement methods that require multiple steps.
HCT 116 cells (human colon carcinoma, ATCC-No. CCl-247) were cultivated in RPMI 1640 medium with GlutaMAX™ I (cell culture media that contains L-Alanyl-L-Glutamine [a stabilized a form/source of L-Glutamine] from Invitrogen, Cat-No. 61870-010), 2.5% Fetal Calf Serum (FCS, Sigma Cat-No. F4135 (FBS)); 100 Units/ml penicillin/100 μg/ml streptomycin (=Pen/Strep from Invitrogen Cat. No. 15140). For the assay the cells were seeded in 384 well plates, 1000 cells per well, in the same medium. The next day the test compounds were added in various concentrations ranging from 30 μM to 0.0015 μM (10 concentrations, 1:3 diluted). After 5 days the viability assay was done according to the instructions of the manufacturer. In brief: the cell-plate was equilibrated to room temperature for approximately 30 minutes and then reagent (containing luciferase, luciferan substrate, and buffer) was added. The contents were carefully mixed for 15 minutes to induce cell lysis. After 45 minutes the luminescent signal was measured in Victor 2, (scanning multiwell spectrophotometer, Wallac).
Medium: RPMI 1640 with cell culture media containing L-Alanyl-L-Glutamine [GlutaMAX™ I (Invitrogen, Cat-No. 61870)], 5% FCS (Sigma Cat.-No. F4135), Pen/Strep (Invitrogen, Cat No. 15140).
HCT116 (ATCC-No. CCl-247): 1000 cells in 60 μl per well of 384 well plate (Greiner 781098, μClear-plate white)
After seeding incubate plates 24 h at 37° C., 5% CO2
2nd. Day: Induction (Treatment with Compounds, 10 Concentrations):
In order to achieve a final concentration of 30 μM as highest concentration 3.5 μl of 10 mM compound stock solution were added directly to 163 μl media. Then step (d) of the dilution procedure described below, was followed.
In order to achieve the second highest to the lowest concentrations, a serial dilution with dilution steps of 1:3 was followed according to the procedure (a-d) as described here below:
(a) for the second highest concentration add 10 μl of 10 mM stock solution of compound to 20 μl dimethylsulfoxide (DMSO)
(b) dilute 8×1:3 (always 10 μl to 20 μl DMSO) in this DMSO dilution row (results in 9 wells with concentrations from 3333.3 μM to 0.51 μM)
(c) dilute each concentration 1: 47.6 (3.5 μl compound dilution to 163 μl media)
(d) add 10 μl of every concentration to 60 μl media in the cell plate […]
For orientation: In ATP-based viability assays light output follows the ATP content of the culture.
Take `CC1(C)C(=O)Nc2cc3[nH]c(-c4n[nH]c5c4CCC5)nc3cc21` [Example 1, 7,7-Dimethyl-2-(1,4,5,6-tetrahydro-cyclopentapyrazol-3-yl)-5,7-dihydro-3H-imidazo[4,5-f]indol-6-one]: the concentration for half-maximal inhibition (IC50) – broadly, the concentration that gives 50% inhibition – is 100 to 2000 nM.
With `CN1C(=O)C(C)(C)c2cc3nc(-c4n[nH]c5c4CCC5)[nH]c3cc21` [Example 2, 5,7,7-Trimethyl-2-(1,4,5,6-tetrahydro-cyclopentapyrazol-3-yl)-5,7-dihydro-3H-imidazo[4,5-f]indol-6-one], the IC50 worked out at 430 nM. In other words, the sub-micromolar range.
Consider `CCN1C(=O)C(C)(C)c2cc3nc(-c4n[nH]c5c4CCC5)[nH]c3cc21` [Example 3, 5-Ethyl-7,7-dimethyl-2-(1,4,5,6-tetrahydro-cyclopentapyrazol-3-yl)-5,7-dihydro-3H-imidazo[4,5-f]indol-6-one], for which the 50% inhibitory concentration (IC50) was in the range of 100 to 2000 nM.
For the compound `CCCN1C(=O)C(C)(C)c2cc3nc(-c4n[nH]c5c4CCC5)[nH]c3cc21` [Example 4, 7,7-Dimethyl-5-propyl-2-(1,4,5,6-tetrahydro-cyclopentapyrazol-3-yl)-5,7-dihydro-3H-imidazo[4,5-f]indol-6-one], the IC50 was 224 nM.
The value for `CC1(C)C(=O)N(CCCN2CCOCC2)c2cc3[nH]c(-c4n[nH]c5c4CCC5)nc3cc21` [Example 6, 7,7-Dimethyl-5-(3-morpholin-4-yl-propyl)-2-(1,4,5,6-tetrahydro-cyclopentapyrazol-3-yl)-5,7-dihydro-3H-imidazo[4,5-f]indol-6-one] was 682 nM; that for `CC1(C)C(=O)Nc2cc3[nH]c(-c4n[nH]c5c4CCCC5)nc3cc21` [Example 7, 7,7-Dimethyl-2-(4,5,6,7-tetrahydro-1H-indazol-3-yl)-5,7-dihydro-3H-imidazo[4,5-f]indol-6-one] was 100 to 2000 nM; that for `CCN1C(=O)C(C)(C)c2cc3nc(-c4n[nH]c5c4CCCC5)[nH]c3cc21` [Example 8, 5-Ethyl-7,7-dimethyl-2-(4,5,6,7-tetrahydro-1H-indazol-3-yl)-5,7-dihydro-3H-imidazo[4,5-f]indol-6-one] was 100 to 2000 nM.
Regarding `CCN1C(=O)C(C)(C)c2cc3nc(-c4n[nH]c5c4CN(Cc4ccccc4)CC5)[nH]c3cc21` [Example 13, 2-(5-Benzyl-4,5,6,7-tetrahydro-1H-pyrazolo[4,3-c]pyridin-3-yl)-5-ethyl-7,7-dimethyl-5,7-dihydro-3H-imidazo[4,5-f]indol-6-one], the IC50 is 100 to 2000 nM.
The value for `CCN1C(=O)C(C)(C)c2cc3nc(-c4n[nH]c5c4CN(C(=O)Cc4ccc(F)cc4)CC5)[nH]c3cc21` [Example 15, 5-Ethyl-2-{5-[2-(4-fluoro-phenyl)-acetyl]-4,5,6,7-tetrahydro-1H-pyrazolo[4,3-c]pyridin-3-yl}-7,7-dimethyl-5,7-dihydro-3H-imidazo[4,5-f]indol-6-one] was 1500 nM.
`CCN1C(=O)C(C)(C)c2cc3nc(-c4n[nH]c5c4CN(C(=O)N4CCOCC4)CC5)[nH]c3cc21` [Example 18, 5-Ethyl-7,7-dimethyl-2-[5-(morpholine-4-carbonyl)-4,5,6,7-tetrahydro-1H-pyrazolo[4,3-c]pyridin-3-yl]-5,7-dihydro-3H-imidazo[4,5-f]indol-6-one] gave an IC50 of 100 to 2000 nM.
The value for `CCc1cccc(CC)c1NC(=O)N1Cc2[nH]nc(-c3nc4cc5c(cc4[nH]3)N(C(C)C)C(=O)C5(C)C)c2C1` [Example 21, 3-(5-Isopropyl-7,7-dimethyl-6-oxo-3,5,6,7-tetrahydro-imidazo[4,5-f]indol-2-yl)-4,6-dihydro-1H-pyrrolo[3,4-c]pyrazole-5-carboxylic acid (2,6-diethyl-phenyl)-amide] was 100 to 2000 nM; that for `CCN1C(=O)C(C)(C)c2cc3nc(-c4n[nH]c5c4CN(C(=O)Cc4cccs4)C5)[nH]c3cc21` [Example 23, 5-Ethyl-7,7-dimethyl-2-[5-(2-thiophen-2-yl-acetyl)-1,4,5,6-tetrahydro-pyrrolo[3,4-c]pyrazol-3-yl]-5,7-dihydro-3H-imidazo[4,5-f]indol-6-one] was 100 to 2000 nM.

The values are drawn from US20060235013A1, “Tricyclic azole derivatives” (priority 2005, published 2006).
